Reference: the supplement of paper PMC9663587

What was measured:
[1] = compound: CC(=O)Nc1cccc(-n2c(=O)n(C3CC3)c(=O)c3c(Nc4ccc(I)cc4F)n(C)c(=O)c(C)c32)c1
Doxorubicin = compound: COc1cccc2c1C(=O)c1c(O)c3c(c(O)c1C2=O)C[C@@](O)(C(=O)CO)C[C@@H]3O[C@H]1C[C@H](N)[C@H](O)[C@H](C)O1 [Doxorubicin]
Ceritinib/LDK378 = compound: Cc1cc(Nc2ncc(Cl)c(Nc3ccccc3S(=O)(=O)C(C)C)n2)c(OC(C)C)cc1C1CCNCC1 [Ceritinib/LDK378]
Volasertib/BI6727 = compound: CC[C@@H]1C(=O)N(C)c2cnc(Nc3ccc(C(=O)N[C@H]4CC[C@H](N5CCN(CC6CC6)CC5)CC4)cc3OC)nc2N1C(C)C [Volasertib/BI6727]
THZ531 [2] = compound: T1, CN(C)C/C=C/C(=O)Nc1ccc(C(=O)N2CCC[C@@H](Nc3ncc(Cl)c(-c4c[nH]c5ccccc45)n3)C2)cc1 [THZ531]
BSJ-03-123 [3] = compound: T2, CC(=O)c1c(C)c2cnc(Nc3ccc(N4CCN(CCOCCOCCOCCNC(=O)COc5cccc6c5C(=O)N(C5CCC(=O)NC5=O)C6=O)CC4)cn3)nc2n(C2CCCC2)c1=O [BSJ-03-123]
Neratinib/HKI272 [4] = compound: T3, CCOc1cc2ncc(C#N)c(Nc3ccc(OCc4ccccn4)c(Cl)c3)c2cc1NC(=O)/C=C/CN(C)C [Neratinib/HKI272]
[5] = compound: CO[C@@H](C)Cn1c(=O)n(C)c2cnc3ccc(-c4cncc(C(C)(C)O)c4)cc3c21
Vorinostat = compound: O=C(CCCCCCC(=O)Nc1ccccc1)NO [Vorinostat]
AZD2014 = compound: CNC(=O)c1cccc(-c2ccc3c(N4CCOC[C@@H]4C)nc(N4CCOC[C@@H]4C)nc3n2)c1 [AZD2014]
[6] = compound: CC(=O)c1c(C)c2cnc(Nc3ccc(N4CCNCC4)cn3)nc2n(C2CCCC2)c1=O
Taselisib/GDC0032 = compound: Cc1nc(-c2cn3c(n2)-c2ccc(-c4cnn(C(C)(C)C(N)=O)c4)cc2OCC3)n(C(C)C)n1 [Taselisib/GDC0032]
INK128/MLN0128 = compound: CC(C)n1nc(-c2ccc3oc(N)nc3c2)c2c(N)ncnc21 [INK128/MLN0128]
BSJ-01-175 = compound: CN(C)C/C=C/C(=O)Nc1ccc(O[C@@H]2CCC[C@@H](Nc3ncc(Cl)c(-c4c[nH]c5ccccc45)n3)C2)cc1 [BSJ-01-175]
Rucaparib = compound: CNCc1ccc(-c2[nH]c3cc(F)cc4c3c2CCNC4=O)cc1 [Rucaparib]
Dasatinib = compound: Cc1nc(Nc2ncc(C(=O)Nc3c(C)cccc3Cl)s2)cc(N2CCN(CCO)CC2)n1 [Dasatinib]
THZ1 = compound: CN(C)C/C=C/C(=O)Nc1ccc(C(=O)Nc2cccc(Nc3ncc(Cl)c(-c4c[nH]c5ccccc45)n3)c2)cc1 [THZ1]; assay: increase in dead-cell fraction, 72 h; higher = more death;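 further: breast cancer cell lines in 384-well plates, stained with Hoechst plus LIVE/DEAD far red dye and imaged, cells above an LDR intensity threshold counted dead, Hoechst-negative corpses included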
THZ531 [7] = compound: T1, THZ531; assay: as above
BSJ-03-123 [8] = compound: T2, BSJ-03-123; assay: as above
Neratinib/HKI272 [9] = compound: T3, Neratinib/HKI272; assay: as above
YKL-5-124 = compound: C=CC(=O)Nc1ccc(C(=O)Nc2[nH]nc3c2CN(C(=O)N[C@H](CN(C)C)c2ccccc2)C3(C)C)cc1 [YKL-5-124]; assay: as above
[10] = compound: CCc1cnn2c(NCc3ccc[n+]([O-])c3)cc(N3CCCC[C@H]3CCO)nc12; assay: as above
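Wherever GR50, 72 h is given: breast cancer and non-malignant breast epithelial cell lines, Deep Dye Drop or Dye Drop imaging, nine half-log doses, GR normalized to time-zero plates and DMSO-only controls.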

With UACC893 the “GR50, 72 h” value [1] was 0.0212 µM, the “GR50, 72 h” value (Doxorubicin) was 0.0106 µM and the “GR50, 72 h” value (Ceritinib/LDK378) was > 10 µM. The “GR50, 72 h” value (Volasertib/BI6727) was 0.00357 µM, the “GR50, 72 h” value (THZ531 [2]) was 0.0414 µM and the “GR50, 72 h” value (BSJ-03-123 [3]) was 1.46 µM. The “GR50, 72 h” value (Neratinib/HKI272 [4]) was 0.00274 µM, the “GR50, 72 h” value [5] was 0.00107 µM and the “GR50, 72 h” value (Vorinostat) was 3.72 µM. For the same cell line, the “GR50, 72 h” value (AZD2014) was < 0.001 µM, the “GR50, 72 h” value [6] was 0.0209 µM and the “GR50, 72 h” value (Taselisib/GDC0032) was 0.00346 µM. For the same cell line, the “GR50, 72 h” value (INK128/MLN0128) was 0.00694 µM, the “GR50, 72 h” value (BSJ-01-175) was 0.0165 µM and the “GR50, 72 h” value (Rucaparib) was > 10 µM. For the same cell line, the “GR50, 72 h” value (Dasatinib) was > 10 µM, the “increase in dead-cell fraction” value (THZ1; 0.0001 µM) was -0.0022 and the “increase in dead-cell fraction” value (THZ1; 0.0003162 µM) was -0.0022. For the same cell line, the “increase in dead-cell fraction” value (THZ1; 0.001 µM) was 0.0023, the “increase in dead-cell fraction” value (THZ1; 0.003162 µM) was -0.0026 and the “increase in dead-cell fraction” value (THZ1; 0.01 µM) was -0.0007. The “increase in dead-cell fraction” value (THZ1; 0.03162 µM) was 0.0317, the “increase in dead-cell fraction” value (THZ1; 0.1 µM) was 0.0774 and the “increase in dead-cell fraction” value (THZ1; 0.3162 µM) was 0.0967. For the same cell line, the “increase in dead-cell fraction” value (THZ1; 1 µM) was 0.134, the “increase in dead-cell fraction” value (THZ531 [7]; 0.0001 µM) was -0.0016 and the “increase in dead-cell fraction” value (THZ531 [7]; 0.0003162 µM) was 0.0009. The “increase in dead-cell fraction” value (THZ531 [7]; 0.001 µM) was 0.0027, the “increase in dead-cell fraction” value (THZ531 [7]; 0.003162 µM) was 0.0008 and the “increase in dead-cell fraction” value (THZ531 [7]; 0.01 µM) was -0.0019. For the same cell line, the “increase in dead-cell fraction” value (THZ531 [7]; 0.03162 µM) was 0.0067, the “increase in dead-cell fraction” value (THZ531 [7]; 0.1 µM) was 0.0859 and the “increase in dead-cell fraction” value (THZ531 [7]; 0.3162 µM) was 0.0937. For the same cell line, the “increase in dead-cell fraction” value (THZ531 [7]; 1 µM) was 0.109, the “increase in dead-cell fraction” value (BSJ-03-123 [8]; 0.001 µM) was -0.0061 and the “increase in dead-cell fraction” value (BSJ-03-123 [8]; 0.003162 µM) was 0.0019. The “increase in dead-cell fraction” value (BSJ-03-123 [8]; 0.01 µM) was 0.0038, the “increase in dead-cell fraction” value (BSJ-03-123 [8]; 0.03162 µM) was -0.0027 and the “increase in dead-cell fraction” value (BSJ-03-123 [8]; 0.1 µM) was 0.0026. For the same cell line, the “increase in dead-cell fraction” value (BSJ-03-123 [8]; 0.3162 µM) was 0.0022, the “increase in dead-cell fraction” value (BSJ-03-123 [8]; 1 µM) was 0.0012 and the “increase in dead-cell fraction” value (BSJ-03-123 [8]; 3.162 µM) was -0.0003. The “increase in dead-cell fraction” value (BSJ-03-123 [8]; 10 µM) was 0.0009, the “increase in dead-cell fraction” value (Neratinib/HKI272 [9]; 0.0003162 µM) was -0.0043 and the “increase in dead-cell fraction” value (Neratinib/HKI272 [9]; 0.001 µM) was -0.0037. For the same cell line, the “increase in dead-cell fraction” value (Neratinib/HKI272 [9]; 0.003162 µM) was 0.0271, the “increase in dead-cell fraction” value (Neratinib/HKI272 [9]; 0.01 µM) was 0.0964 and the “increase in dead-cell fraction” value (Neratinib/HKI272 [9]; 0.03162 µM) was 0.113. The “increase in dead-cell fraction” value (Neratinib/HKI272 [9]; 0.1 µM) was 0.187, the “increase in dead-cell fraction” value (Neratinib/HKI272 [9]; 0.3162 µM) was 0.21 and the “increase in dead-cell fraction” value (Neratinib/HKI272 [9]; 1 µM) was 0.299. For the same cell line, the “increase in dead-cell fraction” value (Neratinib/HKI272 [9]; 3.162 µM) was 0.417, the “increase in dead-cell fraction” value (YKL-5-124; 0.001 µM) was -0.0033 and the “increase in dead-cell fraction” value (YKL-5-124; 0.003162 µM) was 0.0007. For the same cell line, the “increase in dead-cell fraction” value (YKL-5-124; 0.01 µM) was 0.002, the “increase in dead-cell fraction” value (YKL-5-124; 0.03162 µM) was 0.0043 and the “increase in dead-cell fraction” value (YKL-5-124; 0.1 µM) was 0.007. For the same cell line, the “increase in dead-cell fraction” value (YKL-5-124; 0.3162 µM) was 0.0024, the “increase in dead-cell fraction” value (YKL-5-124; 1 µM) was -0.0001 and the “increase in dead-cell fraction” value (YKL-5-124; 3.162 µM) was 0.0003. The “increase in dead-cell fraction” value (YKL-5-124; 10 µM) was 0.163, the “increase in dead-cell fraction” value ([10]; 0.0001 µM) was -0.0009 and the “increase in dead-cell fraction” value ([10]; 0.0003162 µM) was 0.0014. The “increase in dead-cell fraction” value ([10]; 0.001 µM) was -0.005, the “increase in dead-cell fraction” value ([10]; 0.003162 µM) was -0.0023 and the “increase in dead-cell fraction” value ([10]; 0.01 µM) was 0.0014. For the same cell line, the “increase in dead-cell fraction” value ([10]; 0.03162 µM) was 0.0697, the “increase in dead-cell fraction” value ([10]; 0.1 µM) was 0.123 and the “increase in dead-cell fraction” value ([10]; 0.3162 µM) was 0.166. The “increase in dead-cell fraction” value ([10]; 1 µM) was 0.169.
